# Measurements from patent publication US20240238314A1, “TREATMENT OF ESSENTIAL TREMOR” (Sage Therapeutics, Inc., priority 2021, published 2024).
# Entries after “also recorded” stand apart in the source; their conditions may differ.
# Key:
# [1] = system: individuals with essential tremor; assay: Phase 2 study, Compound 1 60 mg once daily for 28 days: TETRAS ADL total score; type: in vivo, human
# Description: As used herein, “The Essential Tremor Rating Assessment Scale (TETRAS) activities of daily living (ADL) subscale total score” refers to an assessment scale for essential tremor developed by The Tremor Research Group (Elble, R. J., J. Neurol. Neuromedicine 1(4):34-38 (2016); Elble, R. J. et. al., Mov. Disord. 27(12); 1567-1569 (2012)). The TETRAS ADL subscale includes 12 metrics or characteristics, wherein each metric or characteristic is scored 0, 1, 2, 3, or 4 based on the severity of the characteristic present in the subject. Scores for each of the 12 characteristics are then added to give a total score of no greater than 48. The 12 characteristics scored in the TETRAS ADL subscale total score include:
# Participants were 18 to 80 years of age, inclusive, diagnosed of ET of at least 3 years duration with scores of at least 1.5 for each of the six items that comprised the combined total upper limb TETRAS (total performance subscale part 4) with the total score for the dominant upper limb (the sum of the 3 items for either the right or left upper limb, whichever is dominant) being at least 5.5, at both Screening and predose on Day 1.
# (§1) Participants were randomized to receive Compound 1 60 mg or placebo once daily in the morning on a 1:1 basis. If participants reported a TEAE considered by investigator to be related to Compound 1 and not tolerable, investigator might reduce the dose of Compound 1 from 60 mg in 15 mg decrements (i.e., 60 mg, to 45 mg, to 30 mg), as medically appropriate. If intolerable TEAEs persist at the 30 mg dose, Compound 1 was permanently stopped.
# This study included a Screening Period of up to 28 days, a 29-day treatment period consisting of 28 days of dosing with the end of treatment visit intended to be on Day 29 at trough, and a 14-day follow-up period relative to final dose. Study patients were not taking other medications for essential tremor during the 28-day treatment period.
# Similarly, an MMRM was be used for the analysis of the following variables: changes from baseline in TETRAS performance subscale part 4, 6, 7, and 8 combined score, and TETRAS ADL score. For each model, the comparison of interest was between Compound 1 tablets and matching placebo at the 15-day time point. Model-based point estimates (i.e., LS means), 95% confidence intervals, and p-values were reported.
# [2] = system: individuals with essential tremor; assay: Phase 2 study, Compound 1 60 mg once daily for 28 days: safety and tolerability (TEAEs, dose reduction, discontinuation; Safety Set); type: in vivo, human
# Protocol: • Incidence of treatment-emergent adverse events (TEAEs). • Safety and tolerability of Compound 1 as assessed by change from baseline in vital signs, electrocardiograms (ECGs), clinical laboratory parameters, and Columbia-Suicide Severity Rating Scale (C-SSRS). • Physician Withdrawal Checklist (PWC-20).
# as §1
# Participants were monitored for safety during the Treatment and Follow-up Periods (through Study Day 45 [±3 days]) including monitoring for AEs/serious AEs (SAEs), routine clinical laboratory assessments, physical examination, vital signs, and ECG, etc.
# Safety Set: defined as all participants who received at least one dose of Compound 1. The Safety Set was used to provide descriptive summaries of the safety data.
# The safety and tolerability of Compound 1 were evaluated by adverse events, concomitant medication usage, changes from baseline in physical examination, vital signs, clinical laboratory evaluations, and 12-lead ECG. Suicidality was monitored by the C-SSRS. Safety data were listed by subject and by study drug and summarized descriptively. All safety summaries were performed on the Safety Set.
# The incidence of adverse events were summarized by system organ class, and preferred term for subjects in Safety Set.
# [3] = Baseline TETRAS ADL < 28, Day 29
# [4] = Baseline TETRAS ADL ≥ 28, Day 29
# [5] = Safety Set, N = 34, listed as Cmpd 1
structure (smiles),measurement,setting,value
COC[C@@]1(O)CC[C@H]2[C@@H](CC[C@@H]3[C@@H]2CC[C@]2(C)[C@@H](C(=O)Cn4nnc(C)n4)CC[C@@H]32)C1 [Compound 1],LSMean (SE) CFB in TETRAS ADL total score,[1]; [3],−2.84
same,LSMean Difference (CI) vs placebo in CFB in TETRAS ADL total score,[1]; [3],−1.17
same,Mean (SD) % CFB in TETRAS ADL total score,[1]; [3],−16.52%
same,LSMean (SE) CFB in TETRAS ADL total score,[1]; [4],−5.67
same,Mean (SD) % CFB in TETRAS ADL total score,[1]; [4],−18.10%
same,Model-based LSMean (SE) change from baseline in TETRAS ADL total score,"[1]; Full Analysis Set, Day 8",−5.34 (0.845)
same,LSMean difference vs placebo in change from baseline in TETRAS ADL total score,"[1]; Full Analysis Set, Day 15",−2.95
same,Model-based LSMean (SE) change from baseline in TETRAS ADL total score,"[1]; Full Analysis Set, Day 15",−5.43 (0.945)
same,LSMean difference vs placebo in change from baseline in TETRAS ADL total score,"[1]; Full Analysis Set, Day 22",−2.56
same,Model-based LSMean (SE) change from baseline in TETRAS ADL total score,"[1]; Full Analysis Set, Day 22",−5.24 (0.904)
same,Mean (SD) % CFB in TETRAS ADL total score,"[1]; Full Analysis Set, Day 29",−17.4%
same,Model-based LSMean (SE) change from baseline in TETRAS ADL total score,"[1]; Full Analysis Set, Day 29",−4.24 (0.940)
same,LSMean difference vs placebo in change from baseline in TETRAS ADL total score,"[1]; Full Analysis Set, Day 29, listed as Cmpd 1",−1.37
same,LSMean difference vs placebo in change from baseline in TETRAS ADL total score,"[1]; Full Analysis Set, Day 42",1.13
same,Model-based LSMean (SE) change from baseline in TETRAS ADL total score,"[1]; Full Analysis Set, Day 42",−2.14 (0.905)
same,"Participants with early discontinuation of the study at 60 mg, number",[2],5
same,"Down-titration of dose, percent of patients",[2]; 60 mg down-titrated to 45 mg or 30 mg,62%
same,"Early treatment discontinuation, reason Physician Decision, number",[2]; N = 34,1
same,"Early treatment discontinuation, reason Physician Decision, percent",[2]; N = 34,2.9%
same,"Early treatment discontinuation, reason Subject was lost to follow up, number",[2]; N = 34,0
same,"Early treatment discontinuation, reason Withdrawal by Subject, number",[2]; N = 34,3
same,"Early treatment discontinuation, reason Withdrawal by Subject, percent",[2]; N = 34,8.8%
same,"TEAE Asthenia, number of participants","[2]; Safety Set, N = 34",1
same,"TEAE Asthenia, percent of participants","[2]; Safety Set, N = 34",(2.9%)
same,"TEAE Balance disorder, number of participants","[2]; Safety Set, N = 34",5
same,"TEAE Balance disorder, percent of participants","[2]; Safety Set, N = 34",15%
same,"TEAE Coordination abnormal, number of participants","[2]; Safety Set, N = 34",1
same,"TEAE Coordination abnormal, percent of participants","[2]; Safety Set, N = 34",(2.9%)
same,"TEAE Diarrhoea, number of participants","[2]; Safety Set, N = 34",2
same,"TEAE Diarrhoea, percent of participants","[2]; Safety Set, N = 34",(5.9%)
same,"TEAE Diplopia, number of participants","[2]; Safety Set, N = 34",4
same,"TEAE Diplopia, percent of participants","[2]; Safety Set, N = 34",12%
same,"TEAE Disturbance in attention, number of participants","[2]; Safety Set, N = 34",3
same,"TEAE Disturbance in attention, percent of participants","[2]; Safety Set, N = 34",(8.8%)
same,"TEAE Dizziness, number of participants","[2]; Safety Set, N = 34",13
same,"TEAE Dizziness, percent of participants","[2]; Safety Set, N = 34",38%
same,"TEAE Dysarthria, number of participants","[2]; Safety Set, N = 34",4
same,"TEAE Dysarthria, percent of participants","[2]; Safety Set, N = 34",12%
same,"TEAE Fatigue, number of participants","[2]; Safety Set, N = 34",5
same,"TEAE Fatigue, percent of participants","[2]; Safety Set, N = 34",(14.7%)
same,"TEAE Gait disturbance, number of participants","[2]; Safety Set, N = 34",4
same,"TEAE Gait disturbance, percent of participants","[2]; Safety Set, N = 34",12%
same,"TEAE Headache, number of participants","[2]; Safety Set, N = 34",2
same,"TEAE Headache, percent of participants","[2]; Safety Set, N = 34",(5.9%)
same,"TEAE Insomnia, number of participants","[2]; Safety Set, N = 34",1
same,"TEAE Insomnia, percent of participants","[2]; Safety Set, N = 34",(2.9%)
same,"TEAE Irritability, number of participants","[2]; Safety Set, N = 34",0
same,"TEAE Lethargy, number of participants","[2]; Safety Set, N = 34",2
same,"TEAE Lethargy, percent of participants","[2]; Safety Set, N = 34",(5.9%)
same,"TEAE Mental status changes, number of participants","[2]; Safety Set, N = 34",2
same,"TEAE Mental status changes, percent of participants","[2]; Safety Set, N = 34",(5.9%)
same,"TEAE Myalgia, number of participants","[2]; Safety Set, N = 34",0
same,"TEAE Myoclonus, number of participants","[2]; Safety Set, N = 34",3
same,"TEAE Myoclonus, percent of participants","[2]; Safety Set, N = 34",(8.8%)
same,"TEAE Paraesthesia, number of participants","[2]; Safety Set, N = 34",2
same,"TEAE Paraesthesia, percent of participants","[2]; Safety Set, N = 34",(5.9%)
same,"TEAE Somnolence, number of participants","[2]; Safety Set, N = 34",23
same,"TEAE Speech disorder, number of participants","[2]; Safety Set, N = 34",2
same,"TEAE Speech disorder, percent of participants","[2]; Safety Set, N = 34",(5.9%)
same,"TEAE Urinary tract infection, number of participants","[2]; Safety Set, N = 34",1
same,"TEAE Urinary tract infection, percent of participants","[2]; Safety Set, N = 34",(2.9%)
same,"TEAE Balance disorder, percent of participants",[2]; [5],(14.7%)
same,"TEAE Diplopia, percent of participants",[2]; [5],(11.8%)
same,"TEAE Dizziness, percent of participants",[2]; [5],(38.2%)
same,"TEAE Dysarthria, percent of participants",[2]; [5],(11.8%)
same,"TEAE Gait disturbance, percent of participants",[2]; [5],(11.8%)
same,"TEAE Somnolence, percent of participants",[2]; [5],(67.6%)
same,"Discontinuations noted, of patients receiving Compound 1",[2]; in vivo,3800
same,"Participants with early discontinuation of the study at 60 mg, percent",[2]; in vivo,14.7%
same,"Severe adverse events (SAEs) reported by one participant, in words",[2]; individual participants of the Compound 1 group,mental status changes; also recorded: dehydration; also recorded: headache; also recorded: transient ischaemic attack
same,"Early treatment discontinuation due to adverse event (TEAEs leading to treatment discontinuation), number",[2]; of 34,9
same,"Early treatment discontinuation due to adverse event (TEAEs leading to treatment discontinuation), percent",[2]; of 34,26.5%
same,"Participants reporting TEAEs leading to study discontinuation, number",[2]; of 34,4
same,"Participants reporting TEAEs leading to study discontinuation, percent",[2]; of 34,11.8%
same,"Participants reporting TEAEs resulting in treatment dose reduction, number",[2]; of 34,21
same,"Participants reporting TEAEs resulting in treatment dose reduction, percent",[2]; of 34,61.8%
same,"Participants reporting severe TEAEs, number",[2]; of 34,11
same,"Participants reporting severe TEAEs, percent",[2]; of 34,32.4%
same,"Participants reporting treatment-emergent adverse events (TEAEs), number",[2]; of 34,33
same,"Participants reporting treatment-emergent adverse events (TEAEs), percent",[2]; of 34,97.1%
same,"Participants who completed the study at 60 mg dose, number",[2]; of 34,8
same,"Participants who completed the study at 60 mg dose, percent",[2]; of 34,23.5%
same,"Participants who had dose reduced to 30 mg from 60 mg directly, number",[2]; of 34,2
same,"Participants who had dose reduced to 30 mg from 60 mg directly, percent",[2]; of 34,5.9%
same,"Participants who had dose reduced to 45 mg, number",[2]; of 34,19
same,"Participants who had dose reduced to 45 mg, percent",[2]; of 34,55.9%
